Target: human PCSK9 (Homo sapiens, UniProt Q8NBP7)
Assay: PCSK9 ligand binding assay (TR-FRET): interference with binding of human PCSK9 to human LDLR
Details: for IC50: Human PCSK9 Alexa Fluor 647 / Human LDLR extracellular domain-Europium Kryptate; for Max % inhibition: efficacy (Amax), 100% = 1 uM unlabeled human PCSK9, 0% = DMSO
Procedure: Example 10: PCSK9 Ligand Binding Assay
The PCSK9 binding of the compounds of the disclosure were measured using a time resolved fluorescence resonance energy transfer (TR-FRET) assay. This time resolved fluorescence resonance energy transfer (TR-FRET) assay measures the ability of a compound of the present disclosure to interfere with the binding of human PCSK9 to human LDLR, providing measures of both potency (IC50) and efficacy (Amax).
Human PCSK9 Alexa Fluor 647
Human LDLR extracellular domain-Europium Kryptate
Proxi plate-low volume assay plate (PerkinElmer #6008280)
Greiner V-bottom (Greiner BioOne #781280)
Assay Buffer • 20 mM HEPES, pH 7.5 • 150 mM NaCl • 1 mM CaCl2 • 0.01% v/v Tween20 • 0.01% w/v BSA
A master compound plate was prepared in a Greiner V bottom plate by diluting compounds of the disclosure in dimethylsulfoxide to the correct concentration for the desired top concentration based on the desired final concentration: for a 30 uM final concentration the master plate concentration is 1.5 mM (68 uL DMSO+12 uL 10 mM of a compound of the disclosure), for a 10 uM final concentration the master plate concentration is 0.5 mM (76 uL DMSO+4 uL 10 mM of a compound of the disclosure), for a 3 uM final concentration the master plate concentration is 150 uM (69 uL DMSO+1 uL 10 mM of a compound of the disclosure). These solutions were pipetted into columns 1 and 11 of the compound plate. Threefold serial dilutions were generated in columns 2-10 and 12-20 of the compound plate by transferring 10 uL into 20 uL of DMSO. Columns 21 and 22 of the compound plate were negative controls containing DMSO alone.
An intermediate plate was generated in a Greiner V bottom plate by transferring 8 uL from each well of the master plate into a corresponding well containing 92 uL of assay buffer and mixing thoroughly.
A Proxi plate-low volume assay plate was used for the assay. To all wells of the plate was added 10 uL of 16 nM Human PCSK9 Alexa Fluor 647, followed by 5 uL from the intermediate plate. For the positive control wells in columns 23 and 24 of the plate, 5 uL of unlabeled human PCSK9 was added at 4 uM in assay buffer containing 8% DMSO. Following a 30 minute incubation, 5 uL of 4 nM Human LDLR extracellular domain-Europium Kryptate was added and the mixture was incubated for an additional 2 hours.
The TR-FRET signal was measured on an EnVision or PheraStar instrument with a 60 ms delay, 330 nm excitation and 665 nm emission (FRET), and 330 nm excitation and 615 nm (Europium). The FRET ratio (FRET/Europium) was used for calculations.
No inhibition (0%) was observed from the wells containing DMSO (Control) in columns 21 and 22 of the compound plate. Full inhibition (100%) was observed from the wells containing 1 uM human PCSK9 (Control) in columns 23 and 24 of the plate. Data is expressed as percent inhibition: (value—0%)/(100%-0%).

Chain of human PCSK9 (Q8NBP7 153-692): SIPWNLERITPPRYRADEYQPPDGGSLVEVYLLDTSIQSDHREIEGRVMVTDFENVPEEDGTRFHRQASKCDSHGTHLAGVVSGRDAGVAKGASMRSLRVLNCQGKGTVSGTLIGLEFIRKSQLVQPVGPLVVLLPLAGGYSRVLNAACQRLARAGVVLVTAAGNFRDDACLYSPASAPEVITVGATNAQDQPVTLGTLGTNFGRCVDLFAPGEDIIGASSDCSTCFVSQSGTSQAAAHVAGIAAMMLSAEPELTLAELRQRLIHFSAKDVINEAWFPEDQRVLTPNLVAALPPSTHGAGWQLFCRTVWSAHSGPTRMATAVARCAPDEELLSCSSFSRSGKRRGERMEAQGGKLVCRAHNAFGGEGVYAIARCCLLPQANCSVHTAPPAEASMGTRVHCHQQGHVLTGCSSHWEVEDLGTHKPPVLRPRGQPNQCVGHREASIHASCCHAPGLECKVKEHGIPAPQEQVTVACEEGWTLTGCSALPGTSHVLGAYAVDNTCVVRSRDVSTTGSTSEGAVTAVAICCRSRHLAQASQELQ
Chain of human PCSK9 (Q8NBP7 31-152 partner limits assumed): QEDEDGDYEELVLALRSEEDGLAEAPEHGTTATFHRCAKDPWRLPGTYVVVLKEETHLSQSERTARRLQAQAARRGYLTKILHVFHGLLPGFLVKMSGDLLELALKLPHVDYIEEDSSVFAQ

IC50 | Max % inhibition | SMILES
0.847 nM | 112.5% | COC[C@@H]1NC(=O)[C@H](C)N(Cc2ccc(Cl)cc2Oc2ccc(-c3cnc(CN(C)C)n3C)cc2)C(=O)C[C@@H](CC(F)(F)F)C(=O)N2CCC[C@@](Cc3ccc(Cl)cc3)(C2)NC1=O [Compound 2, (3S, 7S, 10S, 13R)-6-(4-chloro-2-(4-(2-((dimethylamino)methyl)-1-methyl-1H-imidazol-5-yl)phenoxy)benzyl)-13-(4-chlorobenzyl)-10-(methoxymethyl)-7-methyl-3-(2,2,2-trifluoroethyl)-1,6,9,12-tetraazabicyclo[11.3.1]heptadecane-2,5,8,11-tetraone]
138 nM | 94.3% | COC[C@@H]1NC(=O)[C@H](CCCN2CCOCC2)N(Cc2ccc(Cl)cc2Oc2ccc(-c3cnc(CN(C)C)n3C)cc2)C(=O)C[C@@H]([C@H]2CCc3ccccc32)C(=O)N(C)C[C@@H](Cc2ccc(Cl)cc2)N(C)C1=O.Cl [Compound 127, (2S, 5S, 8R, 12S)-1-(4-chloro-2-(4-(2-((dimethylamino)methyl)-1-methyl-1H-imidazol-5-yl)phenoxy)benzyl)-8-(4-chlorobenzyl)-12-((R)-2,3-dihydro-1H-inden-1-yl)-5-(methoxymethyl)-7,10-dimethyl-2-(3-morpholinopropyl)-1,4,7,10-tetraazacyclotetradecane-3,6,11,14-tetraone]
1.3 nM | 114.4% | C[C@H]1C(=O)N[C@@H](CO)C(=O)N[C@@]2(Cc3ccc(Cl)cc3)CCCN(C2)C(=O)[C@H](CC2CC2)CC(=O)N1Cc1ccc(Cl)cc1Oc1ccc(-c2cnc(CN(C)C(C)(C)C)n2C)cc1 [Compound 162, (3R, 7S, 10S, 13R)-6-(2-(4-(2-((tert-butyl(methyl)amino)methyl)-1-methyl-1H-imidazol-5-yl)phenoxy)-4-chlorobenzyl)-13-(4-chlorobenzyl)-3-(cyclopropylmethyl)-10-(hydroxymethyl)-7-methyl-1,6,9,12-tetraazabicyclo[11.3.1]heptadecane-2,5,8,11-tetraone]
13.5 nM | 98.8% | CC[C@@H]1CC(=O)N(Cc2c(OCC(F)(F)F)cc(Cl)cc2Oc2ccc(-c3cnc(CN4CCCC4)n3C)cc2)[C@@H](C)C(=O)N[C@@H](CO)C(=O)N(C)[C@H](Cc2ccc(Cl)cc2)CNC1=O.Cl [Compound 112, (2S, 5S, 8R, 12R)-1-(4-chloro-2-(4-(1-methyl-2-(pyrrolidin-1-ylmethyl)-1H-imidazol-5-yl)phenoxy)-6-(2,2,2-trifluoroethoxy)benzyl)-8-(4-chlorobenzyl)-12-ethyl-5-(hydroxymethyl)-2,7-dimethyl-1,4,7,10-tetraazacyclotetradecane-3,6,11,14-tetraone]
0.596 nM | 102.8% | C[C@H]1C(=O)N[C@@H](CO)C(=O)N[C@@]2(Cc3ccc(Cl)cc3)CCCN(C2)C(=O)[C@H](Cc2ccc(F)c(F)c2F)CC(=O)N1Cc1c(F)cc(Cl)cc1Oc1ccc(-c2cnc(CN(C)C)n2C)cc1 [Compound 48, (3R, 7S, 10S, 13R)-6-(4-chloro-2-(4-(2-((dimethylamino)methyl)-1-methyl-1H-imidazol-5-yl)phenoxy)-6-fluorobenzyl)-13-(4-chlorobenzyl)-10-(hydroxymethyl)-7-methyl-3-(2,3,4-trifluorobenzyl)-1,6,9,12-tetraazabicyclo[11.3.1]heptadecane-2,5,8,11-tetraone]
2.56 nM | 114.7% | C[C@H]1C(=O)N[C@@H](COC(F)F)C(=O)N(C)[C@@]2(Cc3ccc(Cl)cc3)CCCN(C2)C(=O)[C@H](CC(F)(F)F)CC(=O)N1Cc1c(F)cc(Cl)cc1Oc1ccc(-c2cnc(CN(C)C)n2C)cc1 [Compound 175, (3S, 7S, 10S, 13R)-6-(4-chloro-2-(4-(2-((dimethylamino)methyl)-1-methyl-1H-imidazol-5-yl)phenoxy)-6-fluorobenzyl)-13-(4-chlorobenzyl)-10-((difluoromethoxy)methyl)-7,12-dimethyl-3-(2,2,2-trifluoroethyl)-1,6,9,12-tetraazabicyclo[11.3.1]heptadecane-2,5,8,11-tetraone]

From patent US11813306B2, “Cyclic tetramer compounds as proprotein convertase subtilisin/kexin type 9 (PCSK9) inhibitors for the treatment of metabolic disorders” (NOVARTIS AG, priority 2018, dated 2023)
